Like-named read-outs stand apart in the source and are kept apart here.

This is an account of results in patent US20230312524A1, “ALPHA1A-ADRENERGIC RECEPTOR AGONISTS AND METHODS OF USE” (CuraSen Therapeutics, Inc., priority 2020, published 2023).

The target in this experiment is T1, α1A-ARS (Homo sapiens, UniProt P35348).
T1 sequence (P35348 1-466): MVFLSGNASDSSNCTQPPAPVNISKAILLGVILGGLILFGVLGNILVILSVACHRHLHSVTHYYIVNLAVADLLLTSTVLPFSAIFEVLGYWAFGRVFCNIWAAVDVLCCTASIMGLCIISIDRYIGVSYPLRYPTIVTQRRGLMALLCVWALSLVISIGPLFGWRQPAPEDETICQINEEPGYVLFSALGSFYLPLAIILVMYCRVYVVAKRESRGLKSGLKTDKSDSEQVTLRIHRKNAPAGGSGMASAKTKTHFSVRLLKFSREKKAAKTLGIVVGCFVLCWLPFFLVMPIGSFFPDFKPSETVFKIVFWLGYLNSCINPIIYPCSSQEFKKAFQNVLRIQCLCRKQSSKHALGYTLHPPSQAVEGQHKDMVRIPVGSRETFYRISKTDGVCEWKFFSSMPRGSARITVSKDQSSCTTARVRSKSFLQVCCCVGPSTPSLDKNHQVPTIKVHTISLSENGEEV
In words: Calcium flux assay (Calcium 6 dye) in cells expressing an α1-AR. Particulars: for Emax: read-out: Average Emax. In kind it is cell-based. The source says: Calcium flux experimental design: alpha-1 adrenergic receptors (α1-ARs) couple to Gq proteins, which results in downstream activation of phospholipase C and release of calcium from intracellular stores. Intracellular calcium increase upon α1-AR activation can be detected by Calcium 6 dye.
Cell preparation: cells expressing an α1-AR were washed in warmed phosphate-buffered saline to remove medium and harvested using versene (Caisson Labs, catalog #EDL01).
Media was removed from cells by tapping plates upside-down on absorbent wipes, followed by 15 second upside-down 50×g centrifugation, again on absorbent wipes. 12 μL cell dye solution was added to cells using a reagent dispenser (Integra viaFILL) and cells were incubated for 90 minutes at 37° C., 5% CO2.
Compound preparation: candidate alpha-adrenergic compounds, dissolved to 10 mM in DMSO, were diluted in_assay buffer (HBSS/H-EPES containing 2 mM CaCl2 and 2 mM probenecid sodium salt). […] On all assay plates, vehicle (DMSO) and positive control (10 μM epinephrine) conditions were included on the plate, as well as a dose-response curve of epinephrine. […] 384 well compound plates were centrifuged briefly at 250×g, sealed (Axygen PCR-SP) and incubated at 37° C. until the 90 minute cell dye incubation was complete.
Calcium 6 stained cells and 384 well compound plates were loaded onto the Flexstation and incubated on the machine for 5 minutes before initiating the assay.
For each assay well, baseline Calcium 6 fluorescence was detected for 18 seconds prior to 12 μL compound addition at 12 μL per second. Changes in Calcium 6 fluorescence were detected for a further 22 seconds, for a total read time of 40 seconds. All detection was performed with medium gain sensitivity, bottom read, with 6 flashes per read.
Data analysis: for calcium flux, analysis of maximum change from baseline over the 40-second read time was determined using Softmax Pro and data was exported as raw text files. Potency estimates (EC50) were derived from dose response curves (maximum change from baseline versus the log concentration of test compound) fit by four-parameter nonlinear regression using Graphpad Prism. Efficacy was determined by comparing the magnitude of the test compound signal window (fitted curve max−min) with the signal window of the full agonist control, epinephrine. […] All experiments were repeated a minimum of three times, with the average (mean) potency and maximum effect relative to the within-plate full agonist dose-response comparator reported.
A general note: A change in cytosolic calcium serves as a functional read-out for many receptors and channels.

[1] abbreviates: calcium flux, α1A-AR, maximum effect relative to full agonist epinephrine.
The mark [2] stands for this setting: calcium flux, α1A-AR, mean of at least three experiments, read-out: Average PEC50.

Take `FC(F)(F)c1ccc(CC2=NCCN2)c(N2CCOCC2)c1` [Compound 68]: the Emax under setting [1] was less than 20%. The EC50 under setting [2] is more than 1000 nM.
Consider `Cc1c(CC2=NCCN2)cc(Cl)c2c1ccn2C` [Compound 101], for which the Emax is more than 61%. Moreover, the EC50 under setting [2] was less than 9.77 nM.
As for `C[C@H](O)c1ccc(CC2=NCCN2)c(Cl)c1` [Compound 163], the Emax under setting [1] was more than 61%. Also, under setting [2], the EC50 was 10 to 977 nM.
For the compound `Cc1ccoc1-c1cc(Cl)ccc1CC1=NCCN1` [Compound 35], the Emax under setting [1] is more than 61%. For the same compound, under setting [2], the EC50 was less than 9.77 nM.
Turning to `Cn1nccc1-c1ccc(CC2=NCCN2)cc1Cl` [Compound 1], under setting [1], the Emax is less than 20%. Besides, the EC50 under setting [2] was more than 1000 nM.
For the compound `FC(F)(F)c1cccc(CC2=NCCN2)c1Cl` [Compound 131], the Emax lay in the range of 21 to 60%. For the same compound, the EC50 under setting [2] was 10 to 977 nM.
Consider `CC(F)(F)c1cc(OC(F)F)ccc1CC1=NCCN1` [Compound 151], for which the maximal response (Emax) lay within 21 to 60%. Further, the EC50 under setting [2] fell in the range of 10 to 977 nM.
Regarding `CCc1cc(S(=O)(=O)C(F)F)ccc1CC1=NCCN1` [Compound 112], the Emax under setting [1] was more than 61%. For the same compound, under setting [2], the EC50 was 10 to 977 nM.
As for `c1cc(CC2=NCCN2)c2[nH]ncc2c1` [Compound 51], the Emax was 21 to 60%. In addition, the EC50 under setting [2] is more than 1000 nM.
Consider `CCC(F)(F)c1c(Cl)cccc1CC1=NCCN1` [Compound 137], for which the Emax lay in the range of 21 to 60%. Further, the EC50 under setting [2] lay in the range of 10 to 977 nM.
In the case of `Clc1ccc(CC2=NCCN2)c(N2CCCC2)c1` [Compound 122], the Emax under setting [1] was more than 61%. Under setting [2], the EC50 was in the range of 10 to 977 nM.
Regarding `Cc1c(CC2=NCCN2)cc(C)c2occc12` [Compound 44], the Emax fell in the range of 21 to 60%. In addition, the EC50 under setting [2] was 10 to 977 nM.
As to `FC(F)Oc1ccc(Cl)c(CC2=NCCN2)c1` [Compound 161], the Emax was more than 61%. In addition, the EC50 under setting [2] fell in the range of 10 to 977 nM.
In the same order, the values of `Cc1cc(OC(F)(F)F)ccc1CC1=NCCN1` [Compound 128] are 21 to 60% and 10 to 977 nM.
Take `Cc1cccc(Cl)c1CC1=NCCN1` [Compound 87]: the EC50 is 10 to 977 nM and the Emax fell in the range of 21 to 60%.
Take `Cc1coc(-c2cc(Cl)ccc2CC2=NCCN2)n1` [Compound 94]: the Emax under setting [1] lay in the range of 21 to 60%. The EC50 under setting [2] fell in the range of 10 to 977 nM.
With `FC(F)Oc1cccc(CC2=NCCN2)c1Cl` [Compound 160], the Emax was more than 61%. The EC50 under setting [2] lay in the range of 10 to 977 nM.
In the case of `Cc1c(CC2=NCCN2)cccc1-c1ccnn1C` [Compound 7], the Emax under setting [1] was 21 to 60%. The EC50 under setting [2] was 10 to 977 nM.
As for `Cc1c(CC2=NCCN2)cc(Cl)c2[nH]ncc12` [Compound 108], the Emax is more than 61%. Also, the EC50 under setting [2] fell in the range of 10 to 977 nM.
`Clc1ccc(CC2=NCCN2)c(C2CC2)c1` [Compound 65]: the Emax was more than 61%. Moreover, the EC50 under setting [2] was in the range of 10 to 977 nM.
Consider `C[C@H](O)c1cc(Cl)ccc1CC1=NCCN1` [Compound 145], for which the Emax under setting [1] was less than 20%. Moreover, under setting [2], the EC50 is more than 1000 nM.
On to `Cc1c(CC2=NCCN2)cccc1-c1cccs1` [Compound 26], for which the Emax under setting [1] was less than 20%. Further, the EC50 under setting [2] was 10 to 977 nM.
For the compound `c1ccc(-c2ncco2)c(CC2=NCCN2)c1` [Compound 158], the Emax under setting [1] is 21 to 60%. Besides, the EC50 under setting [2] is 10 to 977 nM.
As for `Fc1ccc(CC2=NCCN2)c(C2CC2)c1` [Compound 70], the Emax is 21 to 60%. Further, the EC50 under setting [2] was 10 to 977 nM.
As to `c1cc(CC2=NCCN2)c2[nH]ccc2c1` [Compound 50], the Emax was 21 to 60%. Further, under setting [2], the EC50 was 10 to 977 nM.
Take `Cc1c(CC2=NCCN2)ccc(-c2ncco2)c1Cl` [Compound 12]: the Emax under setting [1] is less than 20%. In addition, the EC50 under setting [2] was in the range of 10 to 977 nM.
With `Clc1cc(CC2=NCCN2)ccc1-c1ccn[nH]1` [Compound 2], the Emax under setting [1] was less than 20%. Besides, the EC50 under setting [2] is more than 1000 nM.
With `N#Cc1ccc(CC2=NCCN2)c(C(F)(F)F)c1` [Compound 83], the Emax lay in the range of 21 to 60%. Moreover, under setting [2], the EC50 was more than 1000 nM.
In the same order, the values of `Cc1cc(Cl)cc(C)c1CC1=NCCN1` [Compound 123] are more than 61% and 10 to 977 nM.
For the compound `COc1ccccc1CC1=NCCN1` [Compound 156], the Emax is 21 to 60%. For the same compound, under setting [2], the EC50 lay in the range of 10 to 977 nM.
For the compound `Cn1nccc1-c1cc(Cl)ccc1CC1=NCCN1` [Compound 16], the Emax under setting [1] was 21 to 60%. Further, under setting [2], the EC50 was in the range of 10 to 977 nM.
With `Cc1cc(CC2=NCCN2)cc(C(F)(F)F)c1` [Compound 130], the Emax is more than 61%. The EC50 under setting [2] fell in the range of 10 to 977 nM.
Regarding `C[C@H](F)c1cc(Cl)ccc1CC1=NCCN1` [Compound 147], the Emax was in the range of 21 to 60%. Further, the EC50 under setting [2] is 10 to 977 nM.
With `CCc1c(CC2=NCCN2)ccc(S(=O)(=O)C(F)(F)F)c1Cl` [Compound 150], under setting [1], the Emax is 21 to 60%. Also, the EC50 under setting [2] was more than 1000 nM.
On to `CC(C)Cc1cc(Cl)ccc1CC1=NCCN1` [Compound 88], for which the Emax is more than 61%. Besides, the EC50 under setting [2] was 10 to 977 nM.
In the case of `Clc1c(CC2=NCCN2)ccc2occc12` [Compound 52], the Emax was less than 20%. Also, the EC50 under setting [2] lay in the range of 10 to 977 nM.
In the same order, the values of `Cc1cc2c(C)c(CC3=NCCN3)cc(Cl)c2o1` [Compound 98] are 21 to 60% and 10 to 977 nM.
Turning to `Cc1csc(-c2cccc(CC3=NCCN3)c2C)n1` [Compound 8], under setting [1], the Emax is less than 20%. The EC50 under setting [2] is more than 1000 nM.
On to `Cc1c(CC2=NCCN2)cc(Cl)c2c1cnn2C` [Compound 105], for which the Emax lay within 21 to 60%. Besides, the EC50 under setting [2] was 10 to 977 nM.
Regarding `Cc1ccc(Cl)cc1CC1=NCCN1` [Compound 86], the Emax was 21 to 60%. Further, the EC50 under setting [2] was in the range of 10 to 977 nM.
Consider `Fc1ccc(CC2=NCCN2)c(N2CCOCC2)c1` [Compound 72], for which the Emax under setting [1] is less than 20%. The EC50 under setting [2] was more than 1000 nM.
Turning to `Cc1cc(OC(F)F)ccc1CC1=NCCN1` [Compound 129], the Emax lay within 21 to 60%. Also, the EC50 under setting [2] lay within 10 to 977 nM.
Consider `Cc1ccc(OC(F)(F)F)cc1CC1=NCCN1` [Compound 165], for which the EC50 was in the range of 10 to 977 nM and the Emax was more than 61%.
As to `Cc1cccn1-c1c(Cl)cccc1CC1=NCCN1` [Compound 115], the Emax under setting [1] was in the range of 21 to 60%. Under setting [2], the EC50 is more than 1000 nM.
As for `FC(F)(F)c1cc(Cl)ccc1CC1=NCCN1` [Compound 39], the Emax was more than 61%. Under setting [2], the EC50 lay within 10 to 977 nM.
`Fc1ccc(CC2=NCCN2)c(C(F)(F)F)c1` [Compound 80]: the Emax lay in the range of 21 to 60%. Further, the EC50 under setting [2] was more than 1000 nM.
For `Cc1csc(-c2ccc(CC3=NCCN3)cc2Cl)n1` [Compound 4], the Emax under setting [1] is less than 20%. Also, under setting [2], the EC50 is more than 1000 nM.
As to `Cc1ccc(C(F)(F)F)cc1CC1=NCCN1` [Compound 127], the Emax is more than 61%. For the same compound, the EC50 under setting [2] was 10 to 977 nM.
In the same order, the values of `Cc1cc(C(F)(F)F)ccc1CC1=NCCN1` [Compound 66] are 21 to 60% and 10 to 977 nM.
As for `FC(F)c1cc(Cl)ccc1CC1=NCCN1` [Compound 82], the Emax fell in the range of 21 to 60%. Besides, the EC50 under setting [2] fell in the range of 10 to 977 nM.
Consider `Cc1c(CC2=NCCN2)cccc1-c1cn[nH]c1` [Compound 6], for which, under setting [1], the Emax was in the range of 21 to 60%. The EC50 under setting [2] lay in the range of 10 to 977 nM.
In the same order, the values of `Cn1nccc1-c1cc(CC2=NCCN2)ccc1Cl` [Compound 11] are less than 20% and more than 1000 nM.
In the same order, the values of `FC(F)(F)c1ccc(CC2=NCCN2)c(N2CCCCC2)c1` [Compound 69] are 21 to 60% and 10 to 977 nM.
With `Cc1c(CC2=NCCN2)cc(Cl)c2occc12` [Compound 56], the Emax fell in the range of 21 to 60%. In addition, the EC50 under setting [2] lay within 10 to 977 nM.
In the same order, the values of `CC(C)(C)c1ccccc1CC1=NCCN1` [Compound 64] are less than 20% and more than 1000 nM.
Turning to `Clc1ccc(CC2=NCCN2)c(-c2ccco2)c1` [Compound 30], the Emax under setting [1] is more than 61%. For the same compound, the EC50 under setting [2] is less than 9.77 nM.

As usually defined, the Emax is the size of the effect at its maximum, as opposed to the concentration needed.
